Measured values taken from article PMC12071598, “Piperazine-Substituted Pyranopyridines Exhibit Antiproliferative Activity and Act as Inhibitors of HBV Virion Production” (International Journal of Molecular Sciences, 2025).
In brackets after ≈: the same amount, converted by molar mass. Read-outs that look alike come from different tables or passages of the source.

Columns and labels:
K562 [1] = test system: K562; parameters: method as in PMID 22677031; details: leukemic cell lines (including K562) ref 57; cited from earlier work
K562 [2] = test: Antiproliferative activity, MTT assay, K562; format: cell-based; details: Homo sapiens, K562 chronic myeloid leukemia, 72 h
hepatitis B virus (HBV) = test: microbe, parasite or virus in culture; format: cell-based; details: Hepatitis B virus, 144 h
VV = test: microbe, parasite or virus in culture; format: cell-based; details: Orthopoxvirus vaccinia, 48 h, read-out: VV IC50, µM
A549 [3] = test: Antiproliferative activity, MTT assay, A549; format: cell-based; details: Homo sapiens, A549 lung carcinoma, 72 h
SH-SY5Y = test: Antiproliferative activity, crystal violet staining, SH-SY5Y; format: cell-based; details: Homo sapiens, SH-SY5Y neuroblastoma, 72 h
Influenza A virus = test: microbe, parasite or virus in culture; format: cell-based, influenza A virus (H1N1)
SARS-CoV-2 = test: microbe, parasite or virus in culture; format: cell-based; details: for IC50: Severe acute respiratory syndrome coronavirus 2, Vero C1008, read-out: SARS-CoV-2 IC50, µM
HeLa = test: Antiproliferative activity, MTT assay, HeLa; format: cell-based; details: Homo sapiens, HeLa cervix carcinoma, 72 h
NDV = test: microbe, parasite or virus in culture; format: cell-based, Newcastle disease virus; details: avian paramyxovirus 1, 48 h, read-out: NDV IC50, µM
[4] = Cytotoxicity by MTS assay in MDCK cells; format: cell-based; details: dog, read-out: Influenza A Virus CC50
Description: Production of influenza A virus (H1N1) stock and its infection of MDCK cells, as well as infection of Vero E6 cells with SARS-CoV-2, were described previously. Cytotoxicity of the compounds towards MDCK and VeroE6 cells was assessed by seeding 18,000 cells/well of […] plates in 0.1 mL DMEM, treating with the compounds for 66 h, and measuring cell viability by MTS assay. As positive controls, oseltamivir and N-hydroxicytidine were used (obtained from Sigma).
The compounds were added at non-toxic concentrations in serum-free DMEM to the respective cells; one hour later, the serial 10-fold dilutions of influenza virus or SARS-CoV-2 were added in serum-free medium, and antiviral activity was determined by the reduction in the infectious titer of the virus by cytopathic action (CPE). Calculation of 50% cytotoxic concentration (CC50) and 50% effective concentration (IC50) was performed by standard methods using Microsoft Excel 5.0 and GraphPad Prism 8 (GraphPad Software Inc., Boston, MA, USA).

Nrf2/ARE pathway = test: Status of Nrf2/ARE pathway, real-time RT-PCR in A549 cells; format: cell-based; details: A549, 10 µM, three days
Description: Increased ROS production is often counteracted by the induction of antioxidant enzymes, many of which are controlled by the Nrf2 transcription factor [49]. So, we analyzed if the compounds could have activated this antioxidant defense system.
A possible effect of the least-toxic 3 compounds (DO11-37, DO11-45, and DO11-47) on the status of Nrf2/ARE pathway was analyzed by quantification of expression of Nrf2 and Nrf2-dependend genes using real-time PCR analysis. A549 cells were seeded in 6-well plates at a density of 3.09 × 10^5 cells/well in DMEM-F12 media supplemented with FBS and glutamine and treated with 10 µM compounds for three days. Next, total RNA was isolated using CleanRNA standard kit (Evrogen) with subsequent treatment with DNAseI (Roche, Basel, Switzerland), and 2 µg of RNA from each sample was reverse-transcribed using random hexamer primer and mint reverse transcriptase according to manufacturer’s protocol and subjected to real-time PCR as described previously using primers listed in the Table 5.

HSV-1 = test: microbe, parasite or virus in culture; format: cell-based, herpes simplex virus type 1; details: Human alphaherpesvirus 1, 48 h, read-out: HSV-1 IC50, µM
DU145 = test: Antiproliferative activity, MTT assay, DU145; format: cell-based; details: Homo sapiens, DU-145, DU145 prostate carcinoma, 72 h
HepaRG = test: Cytotoxicity towards non-tumor differentiated HepaRG cells, MTT; format: cell-based, human; details: concentration decreasing number of viable cells by 50%; for IC50: Homo sapiens
PV1 = test: microbe, parasite or virus in culture; format: cell-based, poliovirus type 1; details: Enterovirus C, 48 h, read-out: PV1 IC50, µM
H1299 cells [5] = test: Labile Fe2+ levels, HMRhoNox-M in H1299 cells; format: cell-based; details: H1299, 72 h
Description: To analyze cell death mechanisms, we stained cells NucView 488 (Biotium, Fremont, CA, USA) probe for caspase 3 and 7 activity, 1 ug/mL of non-permeable DNA dye 7-AAD (BioinnLabs, Russia), and stain for labile Fe2+ HMRhoNox-M (Lumiprobe, Russia). Cells were treated with drugs for 72 h and then stained for 30 min with 2 uM NucView 488 and 2 uM HMRhoNox-M at 37 °C. Then, cells were washed once in DMEM with low autofluorescence, then 1 ug/mL 7-AAD was added, and cells were imaged using Leica DMI8 automated microscope. Fluorescent imaging was performed using 10x objective with the following parameters: for Hoechst-33342 excitation 325–375 nm and emission 435–485 nm, NucView 488 460–500/512–542 nm, HMRho-Nox-M 541–551/565–605 nm, and 7-AAD 590–650/662–738 nm. Cells were segmented using images in bright field with cyto3 model from Cellpose and then processed in CellProfiler. 7-AAD and NucView 488 images were used to segment nuclei of necrotic or apoptotic cells in CellProfiler. If a cell contained nucleus stained with NucView 488, it was considered as apoptotic, and if it contained a nucleus stained only with 7-AAD, it was considered as necrotic. HMRhoNox-M signal was analyzed as mean fluorescence intensity per cell. Experiments were repeated two independent times, and 4 random images were recorded each time.

H1299 cells [6] = test: Mitochondrial membrane potential, TMRE in H1299 cells; format: cell-based; details: H1299, 72 h
Description: (§1) H1299 cells were seeded at 750 cells/well density in 96-well plate, treated with drugs for 72 h and then stained with 1 ug/mL Hoechst-33342 (Lumiprobe, Moscow, Russia), 100 nM TMRE (Lumiprobe, Russia) potential-dependent mitochondria stain, 100 nM LumiTracker LysoGreen (Lumiprobe, Russia) stain for acidic lysosomes, and 0.33 ug/mL Tubulin Tracker Deep Red (Invitrogen, USA). Cells were stained at 37 °C for 30 min with all stains, except for LysoGreen, which was added 5 min before imaging. Cells were washed once and imaged in DMEM with low autofluorescence (BioinnLabs, Rostov na Donu, Russia) with Leica DMI8 automated microscope (Wetzlar, Germany). Fluorescent imaging was performed using 10× objective with the following parameters: for Hoechst-33342 excitation 325–375 nm and emission 435–485 nm, LysoGreen 460–500/512–542 nm, TMRE 541–551/565–605 nm, and Tubulin Tracker 590–650/662–738 nm. For nuclei segmentation, we applied cyto3 model from Cellpose v3 [42] to Hoechst-33342 images, and cell cytoplasm was segmented using merged TMRE and Tubulin Tracker images with Sauvola propagation method in CellProfiler v4.2 [43]. Integrated intensity of TMRE and LysoGreen fluorescence for each cell were calculated using CellProfiler. […] Experiments were repeated two independent times, and 4 random images were recorded each time.

H1299 cells [7] = test: Lysosome accumulation, LysoGreen in H1299 cells; format: cell-based; details: H1299, 72 h
Description: as §1

A549 cells = test: Intracellular ROS assay, DCFH2-DA in A549 cells; format: cell-based; details: A549, 10 µM, 72 h
From the text: As cell death is often triggered by increased production of reactive oxygen species (ROS), the next step was to evaluate if our compounds act as pro-oxidants. ROS production was accessed using cell-permeable redox sensitive DCFH2-DA dye. […] As one of the main sites of ROS production is mitochondria, we also evaluated their membrane potential during treatment with either DO11-46 or DO11-48. […] Lysosome activation often accompany late stages of apoptosis, which is in good accordance with our data on the induction of caspase3/7 activity.
Pro-oxidant activity of the compounds was studied by quantification of ROS production using a cell-permeable fluorogenic probe 2′,7′-dichlorodihydrofluorescein diacetate (DCFH2-DA). A549 cells were seeded on a 48-well plate at a density of 10,000 cells/well. Twenty-four hours later, the compounds were added to 10 µM concentration in quadruplicate, and the cells were kept for 72 h. As a positive control, A549 cells were treated with 1 mM H2O2 for 2 h prior analysis. Then, media were replaced with the fresh FBS-lacking DMEM supplemented with 25 µM DCFH2-DA. After 45 min incubation, the cells were washed 10 times with 500 µL PBS, resuspended in 200 µL PBS and transferred to a black 96-well plate. The fluorescence intensities (FLIs) were measured using CHAMELEON V microplate reader with excitation at 485 nm and emission at 535 nm.

H1299 cells [8] = test: Cell death in H1299 cells, NucView 488 caspase 3/7 and 7-AAD staining; format: cell-based; details: H1299, 72 h; 2.5 and 5 µM DO11-46 or 5 and 10 µM DO11-48
Description: To investigate the mechanism of the cytotoxic action of piperazine-substituted pyranopyridines, we evaluated two compounds, namely, DO11-46 and DO11-48, that acted in submicromolar concentrations. The first step was to which type of cell death they induce. This was carried out by staining H1299 cells with 7AAD dye that stains non-viable cells (with damaged membrane) and NucView-488 dye for caspase 3/7 activity as they are activated during apoptosis. Imaging and analysis protocols for H1299 were established earlier, and cells were imaged using automated microscopy and then analyzed using Cellpose and CellProfiler.
To analyze cell death mechanisms, we stained cells NucView 488 (Biotium, Fremont, CA, USA) probe for caspase 3 and 7 activity, 1 ug/mL of non-permeable DNA dye 7-AAD (BioinnLabs, Russia), and stain for labile Fe2+ HMRhoNox-M (Lumiprobe, Russia). Cells were treated with drugs for 72 h and then stained for 30 min with 2 uM NucView 488 and 2 uM HMRhoNox-M at 37 °C. Then, cells were washed once in DMEM with low autofluorescence, then 1 ug/mL 7-AAD was added, and cells were imaged using Leica DMI8 automated microscope. […] HMRhoNox-M signal was analyzed as mean fluorescence intensity per cell. Experiments were repeated two independent times, and 4 random images were recorded each time.

A549 [9] = details: read-out: IC50 against A549; cited from earlier work
[10] = read-out: Extracellular HBV DNA (Δlog10)
[11] = read-out: Intracellular Total HBV RNA (Δlog10)

| Compound | IC50 (K562 [2]) [µM] | log reduction at 1 µM (hepatitis B virus (HBV); [10]) | log reduction at 10 µM (hepatitis B virus (HBV); [10]) | log reduction at 1 µM (hepatitis B virus (HBV); [11]) | log reduction at 10 µM (hepatitis B virus (HBV); [11]) | IC50 (VV) [µM] | IC50 (A549 [3]) [µM] | IC50 (SH-SY5Y) [µM] | Influenza A Virus Δlgmax (Influenza A virus) | SARS-CoV-2 Δlgmax (SARS-CoV-2) | IC50 (SARS-CoV-2) [µM] | IC50 (HeLa) [µM] | IC50 (NDV) [µM] | CC50 at 66 h [4] [µM] | IC50 (HSV-1) [µM] | IC50 (DU145) [µM] | IC50 (HepaRG) [µM] | IC50 (PV1) [µM] | further results |
| --- | --- | --- | --- | --- | --- | --- | --- | --- | --- | --- | --- | --- | --- | --- | --- | --- | --- | --- | --- |
| CC(=O)C(=NNc1ccc2c(=O)cc(-c3ccccc3)oc2c1)N1CCCCC1 [11a, 7-[2-(2-oxo-1-(piperidin-1-yl)propylidene)hydrazinyl]-2-phenyl-4H-chromen-4-one] | – | – | – | – | – | – | – | – | – | – | – | – | – | – | – | – | – | – | IC50 against K562 (K562 [1]): 2.56 ± 0.57 µg/mL (≈ 6.57 µM) |
| COc1cccc(NC(=O)CSc2nc(N3CCNCC3)c3c(c2C#N)CC(C)(C)OC3)c1 [DO11-47, 2-[(5-Cyano-3,3-dimethyl-8-piperazin-1-yl-3,4-dihydro-1H-pyrano[3,4-c]pyridin-6-yl)thio]-N-(3-methoxyphenyl)acetamide] | 12.8 ± 4.2 | < 0.5 | < 0.5 | < 0.5 | < 0.5 | > 60 | 67.8 ± 5.8 | 36.7 ± 18.2 | 0 | 0 | > 38 | 39.3 ± 16.9 | > 60 | 810 | > 60 | 10 ± 2.9 | 437 ± 14.8 | > 60 | expression of Nrf2, NQO1, HO-1, GCLC, and GCLM genes (Nrf2/ARE pathway): increase was not statistically significant; IC50 (µM) HepaRG (HepaRG): almost non-toxic |
| COc1ccccc1NC(=O)CSc1nc(N2CCNCC2)c2c(c1C#N)CC(C)(C)OC2 [DO11-48, 2-[(5-Cyano-3,3-dimethyl-8-piperazin-1-yl-3,4-dihydro-1H-pyrano[3,4-c]pyridin-6-yl)thio]-N-(2-methoxyphenyl)acetamide] | 0.5 ± 0.1 | < 0.5 | < 0.5 | < 0.5 | < 0.5 | > 3.75 | 3.5 ± 0.7 | 18.1 ± 5.1 | 0 | 0 | > 10 | 2.2 ± 0.6 | > 3.75 | 830 | > 3.75 | 2.5 ± 1.2 | 10.9 ± 1.6 | > 3.75 | levels of Fe2+ ions (H1299 cells [5]): did not affect; mitochondrial membrane potential (H1299 cells [6]): neither of them caused mitochondrial dysfunction; accumulation of lysosomes (H1299 cells [7]): induced the accumulation of lysosomes; ROS generation (A549 cells): significantly increased ROS generation; number of apoptotic and necrotic cells (H1299 cells [8]): increased the number of apoptotic and necrotic cells |
| CC(=O)CN1CCN(c2ccc(C(=O)C=Cc3ccc(N(C)C)cc3)cc2)CC1 [dimethylamino-4’-[N-(2-oxopropyl)-1-piperazinyl]chalcone] | – | – | – | – | – | – | – | – | – | – | – | – | – | – | – | – | – | – | IC50 (A549 [9]): 0.19 µM |
